We go through eight compounds from patent publication US20140249135A1, “PIM KINASE INHIBITORS AND METHODS OF THEIR USE” (NOVARTIS AG, priority 2007, published 2014).

By IC50 is commonly meant the concentration that gives 50% inhibition. As a reminder, the EC50 is the concentration that produces a half-maximal response.

The target of test [1] is T1, human full length PKCE enzyme (Homo sapiens, UniProt Q02156).
T1 construct: human full length PKCE enzyme purchased from InVitrogen; purchased InVitrogen
T1 sequence (Q02156 1-737): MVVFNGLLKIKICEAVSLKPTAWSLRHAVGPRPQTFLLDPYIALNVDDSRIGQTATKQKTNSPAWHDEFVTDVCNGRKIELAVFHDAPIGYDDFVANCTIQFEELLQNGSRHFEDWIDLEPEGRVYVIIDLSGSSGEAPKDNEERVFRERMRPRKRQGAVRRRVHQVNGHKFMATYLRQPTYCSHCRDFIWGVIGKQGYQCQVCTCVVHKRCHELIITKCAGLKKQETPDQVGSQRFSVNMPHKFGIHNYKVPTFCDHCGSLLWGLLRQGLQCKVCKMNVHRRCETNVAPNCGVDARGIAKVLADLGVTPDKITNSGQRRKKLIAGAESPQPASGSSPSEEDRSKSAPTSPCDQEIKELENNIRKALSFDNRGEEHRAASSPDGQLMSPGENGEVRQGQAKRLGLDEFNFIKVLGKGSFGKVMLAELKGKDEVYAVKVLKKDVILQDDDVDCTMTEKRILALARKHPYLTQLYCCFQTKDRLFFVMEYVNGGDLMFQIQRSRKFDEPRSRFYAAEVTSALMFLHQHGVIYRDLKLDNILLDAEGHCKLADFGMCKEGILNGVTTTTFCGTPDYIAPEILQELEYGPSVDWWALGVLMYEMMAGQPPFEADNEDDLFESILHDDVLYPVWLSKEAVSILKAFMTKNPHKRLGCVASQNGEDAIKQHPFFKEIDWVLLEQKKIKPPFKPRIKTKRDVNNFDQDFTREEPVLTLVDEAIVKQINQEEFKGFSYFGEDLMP
Description: In vitro PKCE assay. The format is biochemical. To be noted: 10 nM enzyme, 40 uM peptide substrate, 20 uM ATP, KinaseGlo Plus readout; read-out: PKCε IC50. (In Kinase-Glo more light means more ATP remaining.)

Test [2] concerns the target Pim3 kinase (Homo sapiens, UniProt Q86V86). The test is described as follows: Pim3 ATP depletion assay. Type of test: biochemical. To be noted: read-out: IC50 (μM) PIM3.
Test [3] has as its target Pim1 kinase (Homo sapiens, UniProt P11309). Description: Pim1 ATP depletion assay.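 Note: Luciferase-luciferin luminescence readout of residual ATP after PIM1 transfers phosphate to a peptide substrate, 40 µM ATP added, reaction run to roughly half ATP consumption.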 To be noted: Pim1 ATP depletion assay; read-out: IC50 (μM) PIM1. Type of test: biochemical.
Test [4] has as its target Pim2 kinase (Homo sapiens, UniProt Q9P1W9). Description: Pim2 ATP depletion assay.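 Note: Luciferase-based luminescent readout of ATP remaining after PIM2 phosphorylates a BAD peptide, final 5 nM enzyme, 4 µM ATP, 10 µM peptide, 2.5% DMSO, run to roughly half ATP consumption.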 Particulars: read-out: IC50 (μM) PIM2. The format is biochemical.
The target in test [5] is KDR kinase (Homo sapiens, UniProt P35968). The test is described as follows: KDR AlphaScreen assay. To be noted: KDR IC50 (μM). (In Alpha technology, singlet oxygen from a donor bead excites a nearby acceptor bead.)
KDR kinase, sequence (P35968 20-1356): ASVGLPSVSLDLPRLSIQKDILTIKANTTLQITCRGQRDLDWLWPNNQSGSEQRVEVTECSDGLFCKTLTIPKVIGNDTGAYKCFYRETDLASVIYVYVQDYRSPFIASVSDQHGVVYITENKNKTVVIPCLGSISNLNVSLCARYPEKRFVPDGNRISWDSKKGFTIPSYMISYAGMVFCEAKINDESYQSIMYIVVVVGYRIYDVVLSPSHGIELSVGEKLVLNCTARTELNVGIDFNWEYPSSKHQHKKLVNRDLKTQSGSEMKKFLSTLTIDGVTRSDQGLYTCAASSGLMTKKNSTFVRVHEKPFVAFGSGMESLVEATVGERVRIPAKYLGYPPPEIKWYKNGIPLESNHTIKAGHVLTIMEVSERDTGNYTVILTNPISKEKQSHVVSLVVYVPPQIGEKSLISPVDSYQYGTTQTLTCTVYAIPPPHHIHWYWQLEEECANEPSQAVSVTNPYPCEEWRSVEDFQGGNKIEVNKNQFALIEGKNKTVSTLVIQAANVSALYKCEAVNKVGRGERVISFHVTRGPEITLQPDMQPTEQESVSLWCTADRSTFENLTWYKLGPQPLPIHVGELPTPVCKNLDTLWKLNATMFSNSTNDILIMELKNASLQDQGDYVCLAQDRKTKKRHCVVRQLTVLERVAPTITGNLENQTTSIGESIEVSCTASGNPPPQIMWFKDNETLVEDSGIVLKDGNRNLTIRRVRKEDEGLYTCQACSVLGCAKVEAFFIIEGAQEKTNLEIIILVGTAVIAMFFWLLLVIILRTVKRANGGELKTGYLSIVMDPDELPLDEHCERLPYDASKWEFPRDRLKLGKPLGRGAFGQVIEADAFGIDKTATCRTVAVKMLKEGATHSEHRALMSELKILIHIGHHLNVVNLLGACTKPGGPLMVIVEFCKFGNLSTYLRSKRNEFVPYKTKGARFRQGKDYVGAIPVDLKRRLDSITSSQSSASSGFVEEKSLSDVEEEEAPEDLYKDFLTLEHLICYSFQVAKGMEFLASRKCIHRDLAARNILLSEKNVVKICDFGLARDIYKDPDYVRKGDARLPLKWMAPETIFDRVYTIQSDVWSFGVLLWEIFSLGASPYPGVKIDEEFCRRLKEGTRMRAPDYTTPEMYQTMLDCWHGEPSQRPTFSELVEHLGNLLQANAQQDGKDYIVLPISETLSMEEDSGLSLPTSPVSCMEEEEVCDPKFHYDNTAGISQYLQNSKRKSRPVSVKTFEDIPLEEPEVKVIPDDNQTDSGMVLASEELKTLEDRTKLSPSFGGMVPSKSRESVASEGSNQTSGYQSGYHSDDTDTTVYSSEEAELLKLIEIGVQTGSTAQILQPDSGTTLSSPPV
Test [6] concerns HEL 92.1.7 cells. The test is described as follows: Cell proliferation assay (CellTiter-Glo), HEL 92.1.7. Type of test: cell-based. Particulars: Homo sapiens, read-out: EC50 (μM) HEL 92.1.7. An outline of the steps: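 Cells in RPMI1640 with 10% FBS were seeded at 1000 cells/well and exposed to compound dilutions from DMSO stocks for 3 days at 37 °C. Viability was read by CellTiter-Glo luminescence. EC50 was derived from percent inhibition relative to DMSO-only and control-compound wells.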

Pim2 kinase, sequence (Q9P1W9 whole entry): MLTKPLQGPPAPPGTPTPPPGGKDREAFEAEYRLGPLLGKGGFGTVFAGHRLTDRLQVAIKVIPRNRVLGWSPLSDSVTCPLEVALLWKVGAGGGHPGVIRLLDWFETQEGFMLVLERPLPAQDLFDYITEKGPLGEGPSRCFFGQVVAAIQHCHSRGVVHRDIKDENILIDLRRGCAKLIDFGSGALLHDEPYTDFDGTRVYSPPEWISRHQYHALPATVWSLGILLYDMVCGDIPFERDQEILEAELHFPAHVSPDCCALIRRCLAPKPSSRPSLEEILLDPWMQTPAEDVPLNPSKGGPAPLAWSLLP
Pim1 kinase, sequence (P11309 whole entry): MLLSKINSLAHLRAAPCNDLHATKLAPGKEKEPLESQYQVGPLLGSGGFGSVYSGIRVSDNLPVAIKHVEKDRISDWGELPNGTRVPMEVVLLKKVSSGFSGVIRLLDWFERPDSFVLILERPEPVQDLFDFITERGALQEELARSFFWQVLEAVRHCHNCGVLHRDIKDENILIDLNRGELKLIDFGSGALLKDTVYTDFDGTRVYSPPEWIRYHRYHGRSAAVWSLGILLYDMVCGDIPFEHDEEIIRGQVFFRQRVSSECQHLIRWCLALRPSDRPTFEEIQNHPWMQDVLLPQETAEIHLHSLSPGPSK

In the case of `Cc1ccccc1-c1nc(C(=O)Nc2cnccc2N2CCCC(N)C2)c(N)nc1N` (stereo not drawn) [Example 340, 3,5-diamino-6-o-tolyl-pyrazine-2-carboxylic acid (3-amino-3,4,5,6-tetrahydro-2H-[1,4′]bipyridinyl-3′-yl)-amide], the IC50 in test [1] was 1000 to 10000 nM; in test [2], less than 1 µM; in test [3] it was less than 1 µM; in test [4], less than 1 µM; in test [5] it was 10 to 25 µM. Moreover, the EC50 in test [6] was 1 to 5 µM.
In the case of `Nc1nc(N)c(-c2ccccc2C(F)(F)F)nc1C(=O)Nc1cnccc1N1CCCC(N)C1` (stereo not drawn) [Example 341, 3,5-diamino-6-(2-trifluoro-methyl-phenyl)-pyrazine-2-carboxylic acid (3-amino-3,4,5,6-tetrahydro-2H-[1,4′]bi-pyridinyl-3′-yl)-amide], the IC50 in test [1] is less than 1000 nM; in test [2], less than 1 µM; in test [3] it was less than 1 µM; in test [4] it was less than 1 µM; in test [5] it was 1 to 10 µM. In addition, the EC50 in test [6] was 1 to 5 µM.
As to `Nc1nc(N)c(-c2ccccc2Cl)nc1C(=O)Nc1cnccc1N1CCCC(N)C1` (stereo not drawn) [Example 342, 3,5-diamino-6-(2-chloro-phenyl)-pyrazine-2-carboxylic acid (3-amino-3,4,5,6-tetra-hydro-2H-[1,4′]bipyridinyl-3′-yl)-amide], the IC50 is 1000 to 10000 nM in test [1]; less than 1 µM in test [2]; less than 1 µM in test [3]; less than 1 µM in test [4]; 1 to 10 µM in test [5]. The EC50 in test [6] was less than 1 µM.
Take `Nc1nc(N)c(-c2ccccc2F)nc1C(=O)Nc1cnccc1N1CCCC(N)C1` (stereo not drawn) [Example 343, 3,5-diamino-6-(2-fluoro-phenyl)-pyrazine-2-carboxylic acid (3-amino-3,4,5,6-tetra-hydro-2H-[1,4′]bipyridinyl-3′-yl)-amide]: the IC50 in test [1] is 1000 to 10000 nM; in test [2], less than 1 µM; in test [3], less than 1 µM; in test [4] it was less than 1 µM; in test [5], 1 to 10 µM. Also, in test [6], the EC50 is less than 1 µM.
`COc1ccccc1-c1nc(C(=O)Nc2cnccc2N2CCCC(N)C2)c(N)nc1N` (stereo not drawn) [Example 344, 3,5-diamino-6-(2-methoxy-phenyl)-pyrazine-2-carboxylic acid (3-amino-3,4,5,6-tetra-hydro-2H-[1,4′]bipyridinyl-3′-yl)-amide]: the half-maximal inhibitory concentration (IC50) is 10000 to 25000 nM in test [1]; less than 1 µM in test [2]; less than 1 µM in test [3]; less than 1 µM in test [4]; more than 25 µM in test [5]. Besides, the EC50 in test [6] is more than 10 µM.
With `Nc1cc(Cl)c(-c2ccc(N)c(C(=O)Nc3cnccc3N3CCC[C@H](N)C3)n2)cn1` [Example 410, 5,6′-diamino-4′-chloro-[2,3′]bi-pyridinyl-6-carboxylic acid ((S)-3-amino-3,4,5,6-tetrahydro-2H-[1,4′]bipyridinyl-3′-yl)-amide], the IC50 in test [1] is 1000 to 10000 nM; in test [2], less than 1 µM; in test [3], less than 1 µM; in test [4], less than 1 µM; in test [5], more than 25 µM. The EC50 in test [6] lay within 1 to 5 µM.
For the compound `Nc1ccc(-c2ccc(N)c(C(=O)Nc3cnccc3N3CCC[C@H](N)C3)n2)cn1` [Example 418, 5,6′-diamino-[2,3′]bipyridinyl-6-carboxylic acid ((S)-3-amino-3,4,5,6-tetrahydro-2H-[1,4′]bi-pyridinyl-3′-yl)-amide], the IC50 in test [1] was 10000 to 25000 nM; in test [2] it was less than 1 µM; in test [3] it was less than 1 µM; in test [4], less than 1 µM; in test [5], more than 25 µM. In addition, in test [6], the EC50 fell in the range of 1 to 5 µM.
On to `Nc1ccc(-c2ccc(F)cc2F)nc1C(=O)Nc1cnccc1N1CCC[C@H](N)C1` [Example 431, 3-amino-6-(2,4-difluoro-phenyl)-pyridine-2-carboxylic acid ((S)-3-amino-3,4,5,6-tetrahydro-2H-[1,4′]bipyridinyl-3′-yl)-amide], for which the IC50 in test [1] was 1000 to 10000 nM; in test [2] it was less than 1 µM; in test [3], less than 1 µM; in test [4], less than 1 µM; in test [5], more than 25 µM. In test [6], the EC50 was 1 to 5 µM.
